Reference: US4539149A, “β-Lactam antibacterial agents” (Beecham Group p.l.c., priority 1981, dated 1985)
Where a name gives a salt, the structure may show the parent alone.

How the values were obtained:
[1] = tested on: K. aerogenes T767; test: in vivo test in mice against experimental infection, K. aerogenes T767; details: Klebsiella aerogenes, sc, mice (5 mice/group), s.c., dosed at 1 and 5 hours after infection, read-out: Total s.c. CD50
Experimental: (§1) The compound of Example 5 was tested in vivo in mice against experimental infections.
(§2) Organism Total* s.c. CD50 (Mg/Kg)
(§3) *dosed at 1 and 5 hours after infection

[2] = tested on: E. coli 96 R-; test: in vivo test in mice against experimental infection, E. coli 96 R-; details: Escherichia coli, sc, mice (5 mice/group), s.c., dosed at 1 and 5 hours after infection, read-out: Total s.c. CD50
Experimental: as §1, §2, §3

[3] = blood concentration in mice after subcutaneous administration; assay type: in vivo; details: mouse, sc, mice (5), 50 mg/kg
Experimental: The compound of Example 5 was administered to mice (5) by the subcutaneous route at a dosage of 50 mg/kg and the blood concentration determined.

[4] = tested on: P. mirabilis 889; test: MIC against P. mirabilis 889; assay type: cell-based; details: Proteus mirabilis, 889, P. mirabilis 889
[5] = tested on: E. coli 96 R+; test: in vivo test in mice against experimental infection, E. coli 96 R+; details: Escherichia coli, sc, mice (5 mice/group), s.c., dosed at 1 and 5 hours after infection, read-out: Total s.c. CD50
Experimental: as §1, §2, §3

SMILES: CCN1CCN(C(=O)N[C@@H](C(=O)N[C@]2(NC=O)C(=O)N3[C@@H](C(=O)O)C(C)(C)S[C@@H]32)c2ccc(O)cc2)C(=O)C1=O [Example 5, 6α-Formamido-6β-[D-2-[(4-ethyl-2,3-dioxopiperazin-1-yl)carbonylamino]-2-(4-hydroxyphenyl)acetamido]penicillanic acid, sodium salt]
- ED50 [1]: 3.7 mg/kg
- ED50 [2]: < 3.1 mg/kg
- AUC [3]: 11000 ng·h/mL
- concentration at 5 min ([3]; 5 mins): 24400 ng/mL
- concentration at 10 min ([3]; 10 mins): 23200 ng/mL
- concentration at 20 min ([3]; 20 mins): 14500 ng/mL
- concentration at 0.5 h ([3]; 30 mins): 11000 ng/mL
- concentration at 1 h ([3]; 60 mins): < 900 ng/mL
- concentration at 2 h ([3]; 120 mins): < 900 ng/mL
- MIC [4]: 0.1 µg/mL
- ED50 [5]: 5.2 mg/kg
